The values that follow are results of earlier work, collected in patent US12097208B2, “Method for treating nasal, sinonasal, and nasopharyngeal tissue infection and/or inflammation” (OTICARA, INC., priority 2019, dated 2024).

Molecules are shown by their SMILES.

For data set [1] the following is noted: in vivo.
The subject of data set [2] is Corynebacteria.
Data set [3] deals with Staphylococci.
Data set [4] deals with Gardnerella vaginalis.
In data set [5] the test system is Pseudomonas aeruginosa.
Data set [6] deals with Steptococci.

Consider `CCC(=O)OCC(=O)[C@@]1(OC(=O)CC)[C@@H](C)C[C@H]2C3CCC4=CC(=O)C=CC4(C)[C@@]3(F)[C@@H](O)CC21C` (stereo partly drawn) [Betamethasone dipropionate, 9-Fluoro-11β,17,21-trihydroxy-16β-methylpregna-1,4-diene-3,20-dione 17,21-dipropionate], for which the “Biological Half Life” value in data set [1] is on record as 36-54 Hours. Take `C[C@H]1C[C@@H]2[C@H]([C@@H](O)C[C@@]3(C)[C@H]2CC[C@]3(O)C(=O)CO)[C@@]2(C)C=CC(=O)C=C12` [Methyl-prednisolone]: the “Biological Half Life” value in data set [1] was 18-36 Hours. For the compound `Clc1ccccc1C(c1ccccc1)(c1ccccc1)n1ccnc1` [clotrimazole], in data set [2], the “Antibacterial activity against Corynebacteria” value is “antibacterial activity”. The “Antibacterial activity against Staphylococci” value in data set [3] is on record as “antibacterial activity”. Moreover, the “Antibacterial activity against Gardnerella vaginalis” value in data set [4] is on record as “antibacterial activity”. Also, the “Effect on Pseudomonas aeruginosa” value in data set [5] is listed as “reduction”. The “Antibacterial activity against Steptococci” value in data set [6] is recorded as “antibacterial activity”. For `C[C@]12CCC(=O)C=C1CC[C@@H]1[C@@H]2[C@@H](O)C[C@@]2(C)[C@H]1CC[C@]2(O)C(=O)CO` [hydrocortisone], in data set [1], the “Biological Half Life” value is reported as 8-12 Hours. Turning to `C[C@]12C=CC(=O)C=C1CC[C@@H]1[C@@H]2[C@@H](O)C[C@@]2(C)[C@H]1CC[C@]2(O)C(=O)CO` [prednisolone], in data set [1], the “Biological Half Life” value is reported as 18-36 Hours. With `C[C@]12C=CC(=O)C=C1CC[C@H]1[C@@H]3C[C@@H](O)[C@](O)(C(=O)CO)[C@@]3(C)C[C@H](O)[C@@]12F` [triamcinolone], the “Biological Half Life” value in data set [1] is on record as 18-36 Hours.
